In test [1] the target is T1, Dihydrofolate reductase (Rattus norvegicus, UniProt Q920D2).
T1 sequence (Q920D2 whole entry): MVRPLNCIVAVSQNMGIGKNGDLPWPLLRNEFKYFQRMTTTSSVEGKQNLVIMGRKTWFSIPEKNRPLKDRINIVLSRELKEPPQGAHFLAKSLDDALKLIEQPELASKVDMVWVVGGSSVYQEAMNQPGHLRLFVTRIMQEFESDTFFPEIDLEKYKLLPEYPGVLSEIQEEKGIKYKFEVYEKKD
Description: Inhibitory activity against rat dihydrofolate reductase

Test [2] deals with T2, Dihydrofolate reductase (Mycobacterium avium, UniProt O30463).
T2 sequence (O30463 whole entry): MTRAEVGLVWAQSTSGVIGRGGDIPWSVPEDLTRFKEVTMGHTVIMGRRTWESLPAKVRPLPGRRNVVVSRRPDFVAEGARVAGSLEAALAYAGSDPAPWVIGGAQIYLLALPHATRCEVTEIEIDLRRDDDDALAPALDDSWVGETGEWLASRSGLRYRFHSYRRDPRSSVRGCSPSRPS
Description: Inhibitory concentration against Mycobacterium avium dihydrofolate reductase

The target in test [3] is T3, Dihydrofolate reductase (Pneumocystis carinii, UniProt P16184).
T3 sequence (P16184 whole entry): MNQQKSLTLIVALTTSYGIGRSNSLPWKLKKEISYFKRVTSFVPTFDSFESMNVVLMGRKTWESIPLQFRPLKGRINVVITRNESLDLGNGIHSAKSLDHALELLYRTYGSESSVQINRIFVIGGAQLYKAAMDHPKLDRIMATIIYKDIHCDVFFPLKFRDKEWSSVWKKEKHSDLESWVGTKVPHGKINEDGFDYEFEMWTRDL
Description: Inhibitory concentration against Pneumocystis carinii dihydrofolate reductase

For test [4], the target named is T4, Bifunctional dihydrofolate reductase-thymidylate synthase (Toxoplasma gondii, UniProt Q07422).
T4 sequence (Q07422 whole entry): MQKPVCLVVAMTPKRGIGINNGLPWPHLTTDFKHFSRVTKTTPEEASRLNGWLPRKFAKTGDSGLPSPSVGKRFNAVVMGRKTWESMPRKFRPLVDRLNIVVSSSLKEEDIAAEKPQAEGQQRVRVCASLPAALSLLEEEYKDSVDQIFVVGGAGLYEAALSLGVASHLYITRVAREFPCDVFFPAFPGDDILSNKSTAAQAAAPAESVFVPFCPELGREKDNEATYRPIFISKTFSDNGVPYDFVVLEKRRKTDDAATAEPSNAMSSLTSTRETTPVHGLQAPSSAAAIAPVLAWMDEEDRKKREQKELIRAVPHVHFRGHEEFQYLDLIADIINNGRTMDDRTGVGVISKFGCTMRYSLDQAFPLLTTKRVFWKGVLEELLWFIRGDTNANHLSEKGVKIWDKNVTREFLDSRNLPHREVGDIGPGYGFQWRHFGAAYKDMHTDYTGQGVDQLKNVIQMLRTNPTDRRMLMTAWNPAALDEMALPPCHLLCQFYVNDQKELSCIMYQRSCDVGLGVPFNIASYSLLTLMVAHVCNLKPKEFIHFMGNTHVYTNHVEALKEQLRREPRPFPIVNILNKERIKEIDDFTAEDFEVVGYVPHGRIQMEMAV
Description: Inhibitory concentration against Toxoplasma gondii dihydrofolate reductase

Test [5] in a line: Selectivity index was determined as ratio of IC50 against rat DHFR to that of IC50 against Toxoplasma gondii DHFR.
Test [6] in a line: Selectivity index was determined as ratio of IC50 against rat DHFR to that of IC50 against Mycobacterium avium DHFR.
Test [7] is described as follows: Selectivity index was determined as ratio of IC50 against rat DHFR to that of IC50 against Pneumocystis carinii DHFR.

Broadly, the IC50 is the midpoint of a concentration-inhibition curve. A higher IC50 goes with lower potency. `COc1cc(Cc2cnc(N)nc2N)cc(C#CCCCC(=O)O)c1OC`: half-maximal inhibition against Dihydrofolate reductase [1] (IC50) was put at 5000 nM.
As for `COc1cc(Cc2cnc(N)nc2N)cc(C#Cc2ccc(C(=O)O)cc2)c1OC`, the IC50 was found to be 8.2 nM against Dihydrofolate reductase [2], 1200 nM against Dihydrofolate reductase [3], 420 nM in test [4] and 88000 nM against Dihydrofolate reductase [1]. The Ratio in test [5] came out at 210; in test [6], 11000; in test [7], 73.
On to `COc1ccc(C#Cc2ccc(C(=O)O)cc2)cc1Cc1cnc(N)nc1N`, for which the values for the Ratio in test [5], in test [6] and in test [7] were 24, 2200 and 6.3, respectively.

The values above are taken from ChEMBL document CHEMBL1147507, “Preliminary in vitro studies on two potent, water-soluble trimethoprim analogues with exceptional species selectivity against dihydrofolate reductase from Pneumocystis carinii and Mycobacterium avium” (Bioorg Med Chem Lett, 2004).
